Non-standard residues stand in square brackets, D forms with d. *: point of attachment. Palmitoyl = CCCCCCCCCCCCCCCC(=O)*; Ahx = NCCCCCC(=O)O
How the values were obtained:
[1] = tested on: hBD2 mRNA; experiment: Quantification of hBD2 mRNA in human keratinocytes by real-time quantitative RT-PCR; type: cell-based; settings: 16 h-24 h
Method: Quantification of the hBD2 mRNA secreted in human keratinocytes after incubation with Ac-L-Glu-L-Met-L-Ala-L-Ile-OH (Ac-SEQ ID No. 3-OH), Ac-L-Arg-Phg-Phg-OH and Ac-L-Arg-Ahx-L-Ala-OH.
(§1) The quantification of the amount of mRNA secreted was carried out by means of a real-time quantitative RT-PCR assay. 3×10^6 cells of a human keratinocyte line were used, seeded in 25 cm^2 flasks. The cells were washed and incubated for 16 h-24 h with different peptide derivatives at a concentration of 1 mm or 0.25 mm in a volume of 3 mL of DMEM medium. LPS (100 μg/mL) and L-Ile (200 μg/mL) were used as positive controls. The supernatants of the cells were stored at −80° C., to analyze the secreted hBD2 protein level and the total RNA was extracted from the cells with the RNeasy kit (Quiagen) following the protocol of the commercial company.
A retrotranscription reaction was carried out in a Mastercycler thermal cycler from 1 μg of total RNA of each sample, using the GeneAmp RNA PCR kit (Applied Biosystems) according to the protocol of the commercial company, and subsequently a real-time PCR was carried out by means of the assay with the SYBR Green I fluorophore in an ABI PRIS M 7700 Sequence Detector (Applied Biosystems).
The amount of mRNA was quantified by standardizing normalizing it with respect to the values of endogenous 18S ribosomal RNA. These values were in turn standardized with respect to the untreated cells and they were represented as the relative hBD2 mRNA level.

[2] = tested on: hBD2 promoter; experiment: Activation of the hBD2 promoter (luciferase activity assay) in a stable A549 cell line; type: cell-based, human
Method: Assay of activation of the hBD2 promoter in a stable cell line by the compounds of general formula (I) obtained in Example 5.
The A549 human epithelial cell line was cultured using RPMI-1640 medium supplemented with FBS and Penicillin-Streptomycin. It was routinely cultured by dividing the cultures twice a week at a 1:10 dilution using Trypsin-EDTA. 10^6 cells of the A549 line were seeded in a 60 mm disc treated with polylysine. After 24 h they were cotransfected with 10 μg of a gene construct formed by the hBD2 gene promoter followed by the luciferase protein gene (pGL3-hBD2promotor-Luc), and the pcDNA3B plasmid DNA containing the geneticin antibiotic resistance gene, at a 1:5 pcDNA3B.1/pGL3-hBD2promotor-Luc ratio. 25 μL of Lipofectamine™ 2000 were used for the transfection. After 24 h the selection was started with complete medium supplemented with the G418-Geneticin® antibiotic, the selection medium being renewed every 2 days. Different clones were isolated, which were characterized and selected based on the luciferase activity.
The selected stable lines were cultured using complete medium for the parental line supplemented with G418. They were routinely cultured by dividing the cultures twice a week at a 1:10 dilution using Trypsin-EDTA.
The capacity to activate the hBD2 promoter was determined by means of the luciferase activity assay since a transcriptional agent inducing hBD2 synthesis causes luciferase enzyme production by means of activating the hBD2 gene promoter contained in the pGL3-hBD2promotor-Luc construct, a luminescence increase being observed. The selected stable cell lines were seeded at 20,000 cells per plate. After 24 h the plates were washed and incubated for 24 h in modified RPMI-1640 medium without L-Isoleucine with different peptide derivatives at a concentration of 0.5 mM. LPS (100 μg/mL) and L-Isoleucine (25 μg/mL) were used as positive controls with the same treatment as the peptide derivatives. Once the incubation period had ended, the Steady-Glo Luciferase Assay System reagent (Promega Corp.) was added to the cells, following the protocol of the commercial company. The luminescent signal (ULAs/s) produced by the reaction between the luciferase and its substrate was quantified with a LUMIstar Galaxy plate luminometer (BMG Labtechnologies). Based on the values of luciferase activity (ULAs/s), standardized with the negative controls, the activation of the hBD2 promoter was determined.

[3] = tested on: hBD2; experiment: Quantification of hBD2 secreted by human keratinocytes by ELISA; type: cell-based
Method: as §1
Quantification of the hBD2 secreted in human keratinocytes after incubation with Ac-L-Glu-L-Met-L-Ala-L-Ile-OH (Ac-SEQ ID No. 3-OH), Ac-L-Arg-Phg-Phg-OH and Ac-L-Arg-Ahx-L-Ala-OH.
The amount of hBD2 secreted by human keratinocytes was quantified by means of an ELISA assay using the Human BD-2 ELISA Development commercial kit (Peprotech) from the supernatants of the cells coming from Example 15.
Based on the absorbance data obtained, the hBD2 protein level was calculated after the calibration with recombinant hBD2. The values of hBD2 obtained were standardized with respect to the values of the control assays (untreated cells).

[4] = 0.25 mM peptide, normalized to 18S rRNA and untreated cells (CONTROL 100%)
[5] = peptide derivative 0.5 mM, 24 h incubation, A549 pGL3-hBD2promotor-Luc stable line, standardized with negative controls (CONTROL 100%)
[6] = 0.25 mm peptide, supernatants of human keratinocytes from Example 15, standardized to untreated cells (CONTROL 100%)

Molecule | Relative hBD2 mRNA level [1, 4] [%] | LUMINESCENCE INCREASE [2, 5] [%] | Relative hBD2 level [3, 6] [%] | also measured
CC[C@H](C)[C@H](N)C(=O)O [L-Ile, L-Isoleucine, reference compound] | – | – | – | Relative hBD2 mRNA level ([1]; positive control L-Ile 200 μg/mL, CONTROL 100%): 125%; LUMINESCENCE INCREASE ([2]; positive control L-Isoleucine 25 μg/mL, 24 h, A549 stable line, CONTROL 100%): 127%; Relative hBD2 level ([3]; positive control L-Ile 200 μg/mL, keratinocyte supernatants, CONTROL 100%): 134%
Ac-Arg-[Ahx]-Ala-OH | 126 | 137 | 126 | –
Ac-L-Arg-Phg-Phg-OH | 201 | 120 | 116 | –
Ac-L-Glu-L-Met-L-Ala-L-Ile-OH (Ac-EMAI-OH) | – | 196 | – | Relative hBD2 mRNA level ([1]; 1 mm peptide, normalized to 18S rRNA and untreated cells (CONTROL 100%)): 323%; Relative hBD2 level ([3]; 1 mm peptide, supernatants of human keratinocytes from Example 15, standardized to untreated cells (CONTROL 100%)): 129%
H-L-Glu-L-Met-L-Ala-L-Ile-OH (H-EMAI-OH) | – | 125 | – | –
Palm-L-Glu-L-Met-L-Ala-L-Ile-NH2 (Palmitoyl-EMAI-NH2; SMILES CCCCCCCCCCCCCCCC(=O)N[C@@H](CCC(=O)O)C(=O)N[C@@H](CCSC)C(=O)N[C@@H](C)C(=O)N[C@H](C(N)=O)[C@@H](C)CC) | – | 137 | – | –

— patent publication US8815266B2, “Peptide derivatives useful in the treatment, care or cleansing of the skin, mucosae, scalp or nails” (Lipotech, S.A., priority 2008, dated 2014)
